Measurements published in patent US20230220122A1, “METHOD FOR PRODUCTION OF FUNCTIONAL POLYSACCHARIDE AND COSMETIC COMPOSITION” (CARBOEXPERT INC., priority 2019, published 2023).
In brackets after ≈: the same amount, converted by molar mass. Several values for one entry are separate records, joined by “and”; a condition that tells them apart may be missing. Equal entries are not always repeated.

Test system: BALB/3T3 clone A31
Test: in vitro 3T3 NRU phototoxicity test
Assay type: cell-based
Settings: for PIF (Photo irritation factor): calculated from IC50 with and without UV (Phototox 2.6)
Method: This test was to evaluate phototoxicity after treating cells of BALB/3T3 clone A31 with a sample in the in vitro 3T3 NRU phototoxicity test. The phototoxicity was identified by evaluating cell viability, IC50 according to the presence or absence of light irradiation, and phototoxicity according to concentration response [photo irritation factor (PIF), and mean photo effect (MPE)].
In addition, as a negative control group, PBS diluted in DMEM was used.
Each of test substances was dissolved in PBS and diluted in steps at […] 2.
UVA (315-400 nm) causing a phototoxic reaction by activating chemical materials without toxicity to cells was irradiated, and the amount of light was 5 J/cm^2.
100 μl of cell suspension (1×10^4 cells/well) and medium were dispensed into two 96 well plates per group, and the cells were cultured for 24 hours in a cell incubator at 37° C. and 5% CO^2.
After removing the medium, the cells were washed once with 150 μl of warm PBS.
The UV irradiation plate was irradiated with UVA at a light intensity of 5 J/cm^2, and while UV was irradiated, the non-irradiated plate was shielded with aluminum foil and left at room temperature. After removing the solution, washing was performed twice with 150 μl of warm PBS. 100 μl of the medium was dispensed and the cells were cultured for 20±2 hours in a cell incubator at 37° C. and 5% CO2.
The growth and morphology of the cells were observed using a microscope, the medium was removed therefrom, and then the cells were washed once with 150 μl of warm PBS. After dispensing 100 μl of neutral red medium, the cells were incubated for 3 hours in a cell incubator at 37° C. and 5% CO2. After removing the neutral red medium, the cells were washed once with 150 μl of warm PBS. 150 μl of neutral red extract was dispensed, and the plate was stirred for 10 minutes while light was shielded.
Absorbance was measured at a wavelength of 540 nm by using a multi-channel microplate reader.
Phototoxicity was judged by calculating PIF and MPE values using IC50 according to the presence or absence of light irradiation.
PIF and MPE values were calculated from the measured absorbance values by using the software (Phototox 2.6, ZEBET at the BFR, Berlin Germany), and no statistical method was performed.

Question: For `CN(C)CCCN1c2ccccc2Sc2ccc(Cl)cc21` [CPZ], which “Cell viability (% of NC)” value (UV (+), 0.04 μg/mL) is on record?
Answer: Its value is 102.67 % of NC.

Question: What about the “Cell viability (% of NC)” value (UV (+), 0.08 μg/mL) of the same compound?
Answer: Its value is 89.09 % of NC.

Question: What about the “Cell viability (% of NC)” value (UV (+), 0.16 μg/mL) of the same compound?
Answer: Its value is 98.75 % of NC.

Question: What about the “Cell viability (% of NC)” value (UV (+), 0.31 μg/mL) of the same compound?
Answer: The value was 106.73 % of NC.

Question: What about the “Cell viability (% of NC)” value (UV (+), 0.63 μg/mL) of the same compound?
Answer: The value was 103.10 % of NC.

Question: What about the “Cell viability (% of NC)” value (UV (+), 2.5 μg/mL) of the same compound?
Answer: The value was 11.51 % of NC.

Question: What about the “Cell viability (% of NC)” value (UV (+), 5 μg/mL) of the same compound?
Answer: Its value is 12.32 % of NC.

Question: What about the “IC50 (50% inhibitory concentration, cell viability)” value (UV (+), UVA 5 J/cm^2, listed as PC) of the same compound?
Answer: Its value is 1.650 µg/mL (≈ 5.17 µM).

Question: What about the “Cell viability (% of NC)” value (UV (−), 1.56 μg/mL) of the same compound?
Answer: The value was 109.65 % of NC.

Question: What about the “Cell viability (% of NC)” value (UV (−), 3.13 μg/mL) of the same compound?
Answer: Its value is 103.07 % of NC.

Question: What about the “Cell viability (% of NC)” value (UV (−), 6.25 μg/mL) of the same compound?
Answer: Its value is 114.87 % of NC.

Question: And the “Cell viability (% of NC)” value (UV (−), 25 μg/mL)?
Answer: The value was 65.55 % of NC.

Question: And the “Cell viability (% of NC)” value (UV (−), 50 μg/mL)?
Answer: Its value is 9.50 % of NC.

Question: And the “Cell viability (% of NC)” value (UV (−), 100 μg/mL)?
Answer: Its value is 9.37 % of NC.

Question: And the “Cell viability (% of NC)” value (UV (−), 200 μg/mL)?
Answer: Its value is 9.31 % of NC.

Question: What about the “IC50 (50% inhibitory concentration, cell viability)” value (UV (−), UV not irradiated, listed as PC) of the same compound?
Answer: Its value is 28.043 µg/mL (≈ 87.9 µM).

Question: And the “PIF (Photo irritation factor)” value (listed as PC)?
Answer: Its value is 17.144.

Question: What about the “PIF (Photo irritation factor)” value (listed as positive control material) of the same compound?
Answer: Its value is 17.1444 and 17.144.

Question: What about the “MPE (Mean photo effect)” value (calculated from concentration response with and without UV (Phototox 2.6)) of the same compound?
Answer: The value was 0.459.
